# Patent US4536502A (priority 1982, dated 1985)
# Tests used:
# Peronospora tabacina = assay: Greenhouse test on tobacco mildew; format: in vivo, Peronospora tabacina (on Nicotiana tabacum, Samson variety); conditions: for inhibition at 15 µg/mL: dose of 15 mg/liter; for inhibition at 500 µg/mL: dose of 500 mg/liter
# From the text: Greenhouse test on tobacco mildew
# The procedure of the previous example is followed, except that the plants are tobacco plants (Nicotiana tabacum) of the Samson variety, and that these plants are contaminated with spores of Peronospora tabacina, which is responsible for tobacco mildew.
# Under these conditions, it was observed that, for the compounds or mixtures of compounds described in the above examples, the minimum inhibitory concentrations causing from 95 to 100% inhibition of the fungus in question (MIC 95-100) are respectively as follows:
# In this experiment, the observed percentage inhibition of the development of the fungus in question was between 20% and 90%: […]
# Phytophthora infestans = assay: whole plant or invertebrate; format: in vivo; conditions: in Solanum lycopersicum, read-out: percentage inhibition of the development of the fungus
# [1] = system: Tetranychus urticae koch, parthenogenetic females; assay: Acaricidal activity by contact-ingestion; format: in vivo; conditions: bean leaves treated by dipping, three days after contamination, average of two experiments
# Procedure: Acaricidal activity by contact-ingestion
# (foliage treated by dipping: Tetranychus urticae koch, parthenogenetic females).
# An aqueous emulsion of the active ingredient to be tested is prepared by grinding the latter, in a Potter mill, in water containing 0.02% of Tween 80. The aqueous emulsion is then brought to the desired concentration by dilution with water containing 0.01% of Scurol O.
# Bean plants (Phaseolus vulgaris--Contender variety) at the "cotyledonary leaf" stage are used. Each plant is treated by dipping the leaves for 10 seconds in the aqueous emulsion containing the active ingredient to be tested, at the desired concentration, two plants being used for each concentration. The experiment was carried out for active ingredient concentrations ranging from 2,000 mg/liter to 10 mg/liter. The bean plants are kept alive by immersing the roots and the base of the stem in distilled water.
# After the surface of the foliage has dried, contamination is carried out by depositing, on each bean leaf, a highly contaminated leaf fragment produced by mite breeding. This leaf fragment is removed after 24 hours.
# Three days after contamination, the number of dead mites and the number of living mites are counted under a binocular magnifying glass.
# The percentage mortality is thus determined for each concentration (average of two experiments). […]
# [2] = read-out: percentage inhibition of the development of the fungus
smiles,measurement,setting,value
"N#Cc1nc2ccccc2[nH]1 [2-Cyanobenzimidazole, 2-cyanobenzimidazole, reference compound]",inhibition at 1000 µg/mL,"Peronospora tabacina; dose of 1,000 mg/liter, read-out: % inhibition (antifungal activity)",0%
Cc1cc2nc(C#N)n(S(=O)(=O)N(C)C)c2cc1C [Compound 8],inhibition at 500 µg/mL,Phytophthora infestans,20 to 90%
CN(C)S(=O)(=O)n1c(C#N)nc2cc(C(C)(C)C)ccc21 [Compound 11],inhibition at 500 µg/mL,Phytophthora infestans,20 to 90%
CS(=O)(=O)n1c(C#N)nc2ccccc21 [Compound 16],inhibition at 15 µg/mL,Peronospora tabacina; [2],20 to 90%
CS(=O)(=O)n1c(C#N)nc2c(Cl)cc(Cl)cc21 [Compound 17],inhibition at 15 µg/mL,Phytophthora infestans,20 to 90%
CC(C)S(=O)(=O)n1c(C#N)nc2c(Cl)cccc21 [Compound 21],inhibition at 8 µg/mL,"Peronospora tabacina; dose of 8 mg/liter, read-out: percentage inhibition of the development of the fungus",20 to 90%
CC(C)S(=O)(=O)n1c(C#N)nc2ccccc21 [Compound 22],inhibition at 15 µg/mL,Peronospora tabacina; [2],20 to 90%
COc1cc2c(nc(C#N)n2S(=O)(=O)N(C)C)c([N+](=O)[O-])c1OC [Compound 28],inhibition at 500 µg/mL,Phytophthora infestans,20 to 90%
same,inhibition at 500 µg/mL,Peronospora tabacina; [2],20 to 90%
CN(C)S(=O)(=O)n1c(C#N)nc2c(Br)cc(Br)cc21 [Compound 39],inhibition at 8 µg/mL,Phytophthora infestans,20 to 90%
CN(C)S(=O)(=O)n1c(C#N)nc2c(N)cccc21 [Compound 42],inhibition at 500 µg/mL,Peronospora tabacina; [2],20 to 90%
Cc1cc(Br)cc2c1nc(C#N)n2S(=O)(=O)N(C)C [Compound 43],inhibition at 500 µg/mL,Phytophthora infestans,20 to 90%
CN(C)S(=O)(=O)n1c(C#N)nc2c(Cl)c(Cl)ccc21 [Compound 45],inhibition at 4 µg/mL,Phytophthora infestans,20 to 90%
Cc1c(Cl)ccc2c1nc(C#N)n2S(=O)(=O)N(C)C [Compound 50],inhibition at 500 µg/mL,Phytophthora infestans,20 to 90%
N#Cc1nc2c(Cl)cc(Cl)cc2n1S(=O)(=O)N1CCCC1 [Compound 57],inhibition at 15 µg/mL,Peronospora tabacina; [2],20 to 90%
CN(C)S(=O)(=O)n1c(C#N)nc2c(C(F)(F)F)cc(Cl)cc21 [Compound 61],"LC90, concentration which causes 90% mortality of the mites",[1],"2,000 mg/liter"
Cc1c([N+](=O)[O-])ccc2c1nc(C#N)n2S(=O)(=O)N(C)C [Compound 64],inhibition at 15 µg/mL,Peronospora tabacina; [2],20 to 90%
CN(C)S(=O)(=O)n1c(C#N)nc2c(C(F)(F)F)cc(C(F)(F)F)cc21 [Compound 70],"LC90, concentration which causes 90% mortality of the mites",[1],10 mg/L
